In ChEMBL document CHEMBL5055685, “Discovery of the First Potent IDO1/IDO2 Dual Inhibitors: A Promising Strategy for Cancer Immunotherapy” (J Med Chem, 2021):
Active and inactive are the calls of the source. The rule behind the calls is not given here.

Tests used:
[1] = Volume of distribution at steady state in Sprague-Dawley rat at 5 mg/kg, iv; assay type: ADME, organism-based; settings: in vivo, read-out: Vdss
[2] = AUC (0 to infinity) in Sprague-Dawley rat at 50 mg/kg, po; assay type: ADME, organism-based; set-up: time infinity, dose 50 mg/kg, route po; settings: in vivo
[3] = Half life in Sprague-Dawley rat at 50 mg/kg, po; assay type: ADME, organism-based; settings: in vivo
[4] = Protein binding in human plasma assessed as fraction unbound by equilibrium dialysis; assay type: ADME, cell-free
[5] = Protein binding in Beagle dog plasma assessed as fraction unbound by equilibrium dialysis; assay type: ADME, cell-free, Canis lupus familiaris
[6] = Toxicity in rat assessed as maximum tolerated dose; assay type: organism-based; settings: in vivo
HCT-116 [7] = test: Antitumor immunity in BALB/c mouse xenografted with human HCT-116 cells assessed as increase in TNFalpha in serum by […]; assay type: functional, cell-based
HCT-116 [8] = test: Antitumor immunity in BALB/c mouse xenografted with human HCT-116 cells assessed as induction of apoptosis of CD4+ T-lymphocytes in tumor-draining lymph nodes by propidium iodide staining based flow cytometry analysis (reference value: 21.9 %); assay type: functional
[9] = target: Indoleamine 2,3-dioxygenase 1 (Mus musculus) (UniProt P28776); test: In vivo inhibition of IDO1 in BALB/c mouse xenografted with human HCT-116 cells assessed as suppression of IDO1 mRNA expression in tumor by quantitative RT-PCR analysis; assay type: functional, organism-based
Mus musculus = test: In vivo inhibition of IDO2 in BALB/c mouse xenografted with human HCT-116 cells assessed as suppression of IDO2 mRNA expression in tumor by quantitative RT-PCR analysis; assay type: functional, organism-based
[10] = target: Tyrosine-protein kinase ABL1 (Homo sapiens) (UniProt P00519); test: Inhibition of ABL1 (unknown origin) at 1 uM
[11] = target: Tyrosine-protein kinase receptor UFO (Homo sapiens) (UniProt P30530); test: Inhibition of AXL (unknown origin) at 1 uM
[12] = target: Cytoplasmic tyrosine-protein kinase BMX (Homo sapiens) (UniProt P51813); test: Inhibition of BMX (unknown origin) at 1 uM
Chain of Cytoplasmic tyrosine-protein kinase BMX (Homo sapiens) (P51813 whole entry): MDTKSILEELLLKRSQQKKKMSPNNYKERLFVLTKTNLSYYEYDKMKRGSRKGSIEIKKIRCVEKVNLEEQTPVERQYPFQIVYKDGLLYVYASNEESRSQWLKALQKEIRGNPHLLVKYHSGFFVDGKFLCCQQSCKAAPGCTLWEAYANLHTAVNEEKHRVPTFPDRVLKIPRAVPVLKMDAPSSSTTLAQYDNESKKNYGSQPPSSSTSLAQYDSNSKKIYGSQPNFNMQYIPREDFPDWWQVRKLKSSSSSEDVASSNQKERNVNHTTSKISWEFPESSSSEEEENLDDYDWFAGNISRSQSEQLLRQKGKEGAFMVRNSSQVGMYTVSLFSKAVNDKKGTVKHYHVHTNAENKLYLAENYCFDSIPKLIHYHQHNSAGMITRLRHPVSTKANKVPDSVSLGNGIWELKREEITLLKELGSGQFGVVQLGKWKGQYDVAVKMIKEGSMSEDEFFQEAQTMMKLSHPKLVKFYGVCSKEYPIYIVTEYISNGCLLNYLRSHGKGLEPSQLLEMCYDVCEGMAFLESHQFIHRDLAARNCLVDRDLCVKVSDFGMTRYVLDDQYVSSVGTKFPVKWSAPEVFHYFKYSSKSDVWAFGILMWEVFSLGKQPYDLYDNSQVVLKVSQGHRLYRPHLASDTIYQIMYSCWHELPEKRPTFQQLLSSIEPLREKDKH

[13] = target: Serine/threonine-protein kinase BRSK2 (Homo sapiens) (UniProt Q8IWQ3); test: Inhibition of BRSK2 (unknown origin) at 1 uM
[14] = target: Calcium/calmodulin-dependent protein kinase type 1 (Homo sapiens) (UniProt Q14012); test: Inhibition of CAMK1A (unknown origin) at 1 uM
[15] = target: CDK6/cyclin D1 (Homo sapiens) (UniProt P24385+Q00534); test: Inhibition of CDK6/cyclin-D1 (unknown origin) at 1 uM; assay type: protein-complex assay
[16] = target: CDK9/Cyclin K (Homo sapiens) (UniProt P50750+O75909); test: Inhibition of CDK9/cyclin-K (unknown origin) at 1 uM; assay type: protein-complex assay
[17] = target: Casein kinase I isoform gamma-3 (Homo sapiens) (UniProt Q9Y6M4); test: Inhibition of CK1gamma3 (unknown origin) at 1 uM
[18] = target: Casein kinase II subunit alpha' (Homo sapiens) (UniProt P19784); test: Inhibition of CK2A2 (unknown origin) at 1 uM
[19] = target: Discoidin domain-containing receptor 2 (Homo sapiens) (UniProt Q16832); test: Inhibition of DDR2 (unknown origin) at 1 uM
[20] = target: G protein-coupled receptor kinase 6 (Homo sapiens) (UniProt P43250); test: Inhibition of GRK6 (unknown origin) at 1 uM
[21] = target: Rhodopsin kinase GRK7 (Homo sapiens) (UniProt Q8WTQ7); test: Inhibition of GRK7 (unknown origin) at 1 uM
[22] = target: Tyrosine-protein kinase HCK (Homo sapiens) (UniProt P08631); test: Inhibition of HCK (unknown origin) at 1 uM
[23] = target: Homeodomain-interacting protein kinase 4 (Homo sapiens) (UniProt Q8NE63); test: Inhibition of HIPK4 (unknown origin) at 1 uM
[24] = target: Insulin-like growth factor 1 receptor (Homo sapiens) (UniProt P08069); test: Inhibition of IGF1R (unknown origin) at 1 uM
[25] = target: Tyrosine-protein kinase ITK/TSK (Homo sapiens) (UniProt Q08881); test: Inhibition of ITK (unknown origin) at 1 uM
[26] = target: Mitogen-activated protein kinase 9 (Homo sapiens) (UniProt P45984); test: Inhibition of JNK2 (unknown origin) at 1 uM
[27] = target: Mitogen-activated protein kinase kinase kinase 1 (Homo sapiens) (UniProt Q13233); test: Inhibition of MEKK1 (unknown origin) at 1 uM
[28] = target: MAP kinase-interacting serine/threonine-protein kinase 2 (Homo sapiens) (UniProt Q9HBH9); test: Inhibition of MNK2 (unknown origin) at 1 uM
[29] = target: Serine/threonine-protein kinase MRCK beta (Homo sapiens) (UniProt Q9Y5S2); test: Inhibition of MRCKbeta (unknown origin) at 1 uM
[30] = target: Phosphorylase b kinase gamma catalytic chain, skeletal muscle/heart isoform (Homo sapiens) (UniProt Q16816); test: Inhibition of PHKgamma1 (unknown origin) at 1 uM
[31] = target: cAMP-dependent protein kinase catalytic subunit alpha (Homo sapiens) (UniProt P17612); test: Inhibition of PKA (unknown origin) at 1 uM
[32] = target: Serine/threonine-protein kinase N3 (Homo sapiens) (UniProt Q6P5Z2); test: Inhibition of PKN3 (unknown origin) at 1 uM
Chain of Serine/threonine-protein kinase N3 (Homo sapiens) (Q6P5Z2 whole entry, looked up): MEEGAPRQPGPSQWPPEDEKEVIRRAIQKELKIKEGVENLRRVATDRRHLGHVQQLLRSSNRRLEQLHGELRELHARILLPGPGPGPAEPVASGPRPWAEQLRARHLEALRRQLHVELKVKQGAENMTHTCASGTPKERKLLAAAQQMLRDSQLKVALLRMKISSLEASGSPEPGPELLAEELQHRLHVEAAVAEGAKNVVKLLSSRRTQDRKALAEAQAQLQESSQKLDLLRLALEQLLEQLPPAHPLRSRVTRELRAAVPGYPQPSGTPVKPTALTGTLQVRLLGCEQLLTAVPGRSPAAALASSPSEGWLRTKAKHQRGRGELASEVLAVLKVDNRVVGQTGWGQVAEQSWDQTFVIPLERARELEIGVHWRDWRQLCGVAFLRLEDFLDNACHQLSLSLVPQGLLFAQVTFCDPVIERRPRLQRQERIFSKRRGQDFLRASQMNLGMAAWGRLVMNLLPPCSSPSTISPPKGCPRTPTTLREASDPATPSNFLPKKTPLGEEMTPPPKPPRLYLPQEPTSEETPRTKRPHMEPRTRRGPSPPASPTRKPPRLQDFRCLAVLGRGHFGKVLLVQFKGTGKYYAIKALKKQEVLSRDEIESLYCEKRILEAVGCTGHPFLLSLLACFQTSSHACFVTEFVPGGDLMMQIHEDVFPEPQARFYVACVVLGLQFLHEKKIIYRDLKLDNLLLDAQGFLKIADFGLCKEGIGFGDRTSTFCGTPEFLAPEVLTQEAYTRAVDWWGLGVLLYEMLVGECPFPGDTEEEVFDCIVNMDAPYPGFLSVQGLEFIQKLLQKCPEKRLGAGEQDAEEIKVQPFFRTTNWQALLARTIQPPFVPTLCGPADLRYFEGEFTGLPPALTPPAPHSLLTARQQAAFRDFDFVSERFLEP

[33] = target: Proto-oncogene tyrosine-protein kinase receptor Ret (Homo sapiens) (UniProt P07949); test: Inhibition of RET (unknown origin) at 1 uM
[34] = target: Rho-associated protein kinase 2 (Homo sapiens) (UniProt O75116); test: Inhibition of ROCK2 (unknown origin) at 1 uM
[35] = target: Ribosomal protein S6 kinase alpha-2 (Homo sapiens) (UniProt Q15349); test: Inhibition of RSK3 (unknown origin) at 1 uM
Chain of Ribosomal protein S6 kinase alpha-2 (Homo sapiens) (Q15349 whole entry): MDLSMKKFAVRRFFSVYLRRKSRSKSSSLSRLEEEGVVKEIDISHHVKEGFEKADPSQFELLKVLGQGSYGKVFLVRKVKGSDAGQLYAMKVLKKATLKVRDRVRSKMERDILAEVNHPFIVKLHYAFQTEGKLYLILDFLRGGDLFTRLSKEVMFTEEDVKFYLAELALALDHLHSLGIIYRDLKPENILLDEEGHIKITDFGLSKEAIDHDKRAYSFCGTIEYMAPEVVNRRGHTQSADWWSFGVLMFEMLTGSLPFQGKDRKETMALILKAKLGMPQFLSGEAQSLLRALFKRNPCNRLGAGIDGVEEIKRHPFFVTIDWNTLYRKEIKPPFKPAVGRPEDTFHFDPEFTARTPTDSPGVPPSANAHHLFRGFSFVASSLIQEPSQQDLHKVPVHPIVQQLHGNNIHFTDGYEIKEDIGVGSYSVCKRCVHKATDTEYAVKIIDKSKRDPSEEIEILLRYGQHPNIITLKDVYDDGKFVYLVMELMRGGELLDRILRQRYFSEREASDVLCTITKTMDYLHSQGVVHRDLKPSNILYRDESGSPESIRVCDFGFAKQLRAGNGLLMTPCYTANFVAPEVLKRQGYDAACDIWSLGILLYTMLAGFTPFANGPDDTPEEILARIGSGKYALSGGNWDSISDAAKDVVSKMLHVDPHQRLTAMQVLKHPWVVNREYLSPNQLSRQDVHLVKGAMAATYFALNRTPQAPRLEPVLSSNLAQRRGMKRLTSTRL

[36] = target: Ribosomal protein S6 kinase alpha-6 (Homo sapiens) (UniProt Q9UK32); test: Inhibition of RSK4 (unknown origin) at 1 uM
[37] = target: NUAK family SNF1-like kinase 2 (Homo sapiens) (UniProt Q9H093); test: Inhibition of SNARK (unknown origin) at 1 uM
[38] = target: SNF-related serine/threonine-protein kinase (Homo sapiens) (UniProt Q9NRH2); test: Inhibition of SNRK (unknown origin) at 1 uM
Chain of SNF-related serine/threonine-protein kinase (Homo sapiens) (Q9NRH2 whole entry): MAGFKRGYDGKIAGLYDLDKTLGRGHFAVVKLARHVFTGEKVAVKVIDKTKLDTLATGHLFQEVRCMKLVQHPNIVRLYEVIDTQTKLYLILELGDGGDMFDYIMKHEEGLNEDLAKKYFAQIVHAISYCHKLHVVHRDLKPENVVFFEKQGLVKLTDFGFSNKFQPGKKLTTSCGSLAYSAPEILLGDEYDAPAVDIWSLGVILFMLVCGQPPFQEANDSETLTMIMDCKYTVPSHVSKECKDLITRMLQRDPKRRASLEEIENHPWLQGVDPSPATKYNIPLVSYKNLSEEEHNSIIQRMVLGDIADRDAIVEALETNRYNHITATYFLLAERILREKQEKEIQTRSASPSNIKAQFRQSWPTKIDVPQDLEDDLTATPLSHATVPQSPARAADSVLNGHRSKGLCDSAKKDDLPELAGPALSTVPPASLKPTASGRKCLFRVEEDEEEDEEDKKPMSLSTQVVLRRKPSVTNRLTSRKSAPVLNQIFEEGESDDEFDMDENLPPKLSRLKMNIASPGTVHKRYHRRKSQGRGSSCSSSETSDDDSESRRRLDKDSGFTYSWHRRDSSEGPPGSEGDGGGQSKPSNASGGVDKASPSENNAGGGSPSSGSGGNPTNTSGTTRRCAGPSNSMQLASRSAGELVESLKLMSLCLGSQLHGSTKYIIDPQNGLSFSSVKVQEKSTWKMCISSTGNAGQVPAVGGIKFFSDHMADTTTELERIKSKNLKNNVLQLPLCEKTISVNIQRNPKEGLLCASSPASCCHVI

[39] = target: Testis-specific serine/threonine-protein kinase 6 (Homo sapiens) (UniProt Q9BXA6); test: Inhibition of SSTK (unknown origin) at 1 uM
Chain of Testis-specific serine/threonine-protein kinase 6 (Homo sapiens) (Q9BXA6 whole entry): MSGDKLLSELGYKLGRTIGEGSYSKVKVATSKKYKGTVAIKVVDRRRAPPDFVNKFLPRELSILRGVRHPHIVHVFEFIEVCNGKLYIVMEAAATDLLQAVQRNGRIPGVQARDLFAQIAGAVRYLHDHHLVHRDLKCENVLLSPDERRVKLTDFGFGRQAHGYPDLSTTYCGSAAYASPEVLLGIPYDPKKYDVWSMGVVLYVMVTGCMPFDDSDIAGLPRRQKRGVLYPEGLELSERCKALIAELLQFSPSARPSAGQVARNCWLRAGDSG

[40] = target: Serine/threonine-protein kinase 33 (Homo sapiens) (UniProt Q9BYT3); test: Inhibition of STK33 (unknown origin) at 1 uM
[41] = target: Serine/threonine-protein kinase tousled-like 2 (Homo sapiens) (UniProt Q86UE8); test: Inhibition of TLK2 (unknown origin) at 1 uM
Chain of Serine/threonine-protein kinase tousled-like 2 (Homo sapiens) (Q86UE8 whole entry, looked up): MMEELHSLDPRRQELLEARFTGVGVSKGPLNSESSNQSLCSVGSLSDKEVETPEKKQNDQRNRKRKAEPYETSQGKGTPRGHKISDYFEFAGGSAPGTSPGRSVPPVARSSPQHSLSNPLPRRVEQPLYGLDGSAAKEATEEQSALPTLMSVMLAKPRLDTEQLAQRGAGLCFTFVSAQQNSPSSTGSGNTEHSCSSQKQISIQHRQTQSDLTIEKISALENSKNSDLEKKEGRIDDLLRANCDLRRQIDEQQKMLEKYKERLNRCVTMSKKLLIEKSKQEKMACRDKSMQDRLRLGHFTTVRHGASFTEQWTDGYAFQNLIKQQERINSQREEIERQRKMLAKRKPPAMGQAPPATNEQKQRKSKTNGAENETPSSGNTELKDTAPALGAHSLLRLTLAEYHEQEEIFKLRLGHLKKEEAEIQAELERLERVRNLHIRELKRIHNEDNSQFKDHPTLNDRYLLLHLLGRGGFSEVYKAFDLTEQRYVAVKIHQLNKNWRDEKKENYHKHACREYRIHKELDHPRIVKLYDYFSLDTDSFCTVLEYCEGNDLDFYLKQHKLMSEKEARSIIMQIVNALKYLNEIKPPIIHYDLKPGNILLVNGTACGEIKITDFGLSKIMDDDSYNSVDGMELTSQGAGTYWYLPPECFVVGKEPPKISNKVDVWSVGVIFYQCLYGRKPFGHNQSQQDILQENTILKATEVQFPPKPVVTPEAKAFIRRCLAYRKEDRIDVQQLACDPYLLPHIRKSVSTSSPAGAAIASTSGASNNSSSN

[42] = target: Testis-specific serine/threonine-protein kinase 2 (Homo sapiens) (UniProt Q96PF2); test: Inhibition of TSSK2 (unknown origin) at 1 uM
Chain of Testis-specific serine/threonine-protein kinase 2 (Homo sapiens) (Q96PF2 whole entry): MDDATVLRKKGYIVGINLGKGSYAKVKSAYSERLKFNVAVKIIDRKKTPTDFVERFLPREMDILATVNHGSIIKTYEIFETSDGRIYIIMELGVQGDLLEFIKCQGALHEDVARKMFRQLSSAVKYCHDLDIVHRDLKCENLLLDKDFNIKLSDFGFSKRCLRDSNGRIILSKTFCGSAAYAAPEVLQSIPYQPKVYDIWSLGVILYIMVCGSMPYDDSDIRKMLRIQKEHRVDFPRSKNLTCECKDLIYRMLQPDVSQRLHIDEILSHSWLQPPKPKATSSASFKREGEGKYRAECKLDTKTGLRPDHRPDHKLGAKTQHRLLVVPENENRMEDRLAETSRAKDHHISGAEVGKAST

[43] = target: Serine/threonine-protein kinase VRK2 (Homo sapiens) (UniProt Q86Y07); test: Inhibition of VRK2 (unknown origin) at 1 uM
Chain of Serine/threonine-protein kinase VRK2 (Homo sapiens) (Q86Y07 whole entry): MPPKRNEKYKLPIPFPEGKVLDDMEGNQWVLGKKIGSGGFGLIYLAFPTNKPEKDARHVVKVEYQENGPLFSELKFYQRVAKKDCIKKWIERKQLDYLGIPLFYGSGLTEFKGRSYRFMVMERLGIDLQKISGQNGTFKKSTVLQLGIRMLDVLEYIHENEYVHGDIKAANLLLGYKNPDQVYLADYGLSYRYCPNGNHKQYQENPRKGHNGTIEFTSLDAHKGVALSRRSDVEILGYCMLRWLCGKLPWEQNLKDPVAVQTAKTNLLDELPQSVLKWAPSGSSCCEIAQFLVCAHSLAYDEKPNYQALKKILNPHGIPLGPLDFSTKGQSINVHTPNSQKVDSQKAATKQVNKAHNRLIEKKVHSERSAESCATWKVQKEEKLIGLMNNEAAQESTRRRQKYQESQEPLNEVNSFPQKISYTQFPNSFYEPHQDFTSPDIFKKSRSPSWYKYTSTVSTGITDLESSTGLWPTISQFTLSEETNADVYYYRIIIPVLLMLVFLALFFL

## OCCOCc1cn(CCNc2nonc2/C(=N/O)Nc2ccc(F)c(Br)c2)nn1
[1]
  Vd: 0.88 L/kg
[2]
  AUC(0-inf): 3950 ng·h/mL
[3]
  half-life: 114 min
[4]
  fraction unbound: 0.0411
[5]
  fraction unbound: 0.0498
[6]
  MTD: 2 mg/kg
HCT-116 [7]
  Activity: Active
HCT-116 [8]
  Activity: 8.83%
[9]
  inhibition: Active
Mus musculus
  inhibition: Active
[10]
  inhibition: inactive
[11]
  inhibition: inactive
[12]
  inhibition: inactive
[13]
  inhibition: inactive
[14]
  inhibition: inactive
[15]
  inhibition: inactive
[16]
  inhibition: inactive
[17]
  inhibition: inactive
[18]
  inhibition: inactive
[19]
  inhibition: inactive
[20]
  inhibition: inactive
[21]
  inhibition: inactive
[22]
  inhibition: inactive
[23]
  inhibition: inactive
[24]
  inhibition: inactive
[25]
  inhibition: inactive
[26]
  inhibition: inactive
[27]
  inhibition: inactive
[28]
  inhibition: inactive
[29]
  inhibition: inactive
[30]
  inhibition: inactive
[31]
  inhibition: inactive
[32]
  inhibition: inactive
[33]
  inhibition: inactive
[34]
  inhibition: inactive
[35]
  inhibition: inactive
[36]
  inhibition: inactive
[37]
  inhibition: inactive
[38]
  inhibition: inactive
[39]
  inhibition: inactive
[40]
  inhibition: inactive
[41]
  inhibition: inactive
[42]
  inhibition: inactive
[43]
  inhibition: inactive
